The record followed here is patent US20020127605A1 (priority 2000, published 2002).

Where two headings read alike, the source gives them in different places.

Experiment [1] deals with T1, human recombinant CyPA (Homo sapiens, UniProt P62937). Briefly: Rotamase inhibition, chymotrypsin-coupled cuvette assay (asterisked values). Format: biochemical. The text has this: (§1) A number of substrates for rotamase are known in the art or can be derived from those known. Typically, the substrate contacts a sample containing a protein with rotamase activity and the conversion of the substrate is detected after a period of time. The method for detecting conversion of the substrate will vary with the particular substrate chosen. One method has been termed the Ki test (See Harding, et al., Nature, 341:758-760 (1989). The cis-trans isomerization of an alanine-proline bond in a model substrate, N-succinyl-Ala-Ala-Pro-Phe-p-nitroanilide, is monitored spectrophotometrically in a chymotrypsin-coupled assay. The action of chymotrypsin releases p-nitroaniline from only the trans form of the substrate. The amount of p-nitroaniline can be monitored in a spectrophotometer, for example. Other methods of detecting the presence of p-nitroaniline can also be used. The inhibition of this reaction caused by different concentrations of inhibitor is determined and the data are analyzed as a change in first-order rate constant as a function of inhibitor concentration, which yields the Ki value.
T1 sequence (P62937 whole entry): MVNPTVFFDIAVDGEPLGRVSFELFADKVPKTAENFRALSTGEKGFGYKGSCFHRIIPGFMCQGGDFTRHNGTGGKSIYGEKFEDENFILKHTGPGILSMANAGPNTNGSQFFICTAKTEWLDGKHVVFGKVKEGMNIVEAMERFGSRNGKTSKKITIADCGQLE
(§2) The following were added to a plastic cuvette: […] of ice cold assay buffer (25 mM HEPES, pH 7.8, 100 mM NaCl), 10 μL of CyP A (2.5 μM in 10 mM Tris-Cl pH 7.5, 100 mM NaCl, 1 mM dithiothreitol), 25 μL of chymotrypsin (50 mg/ml in 1 mM HCl), and 10 μL of test compound, at various concentrations, in dimethyl sulfoxide. The reaction was initiated by the addition of 5 μL of substrate (succinyl-Ala-Phe-Pro-Phe-para-nitroanilide, 5 mg/mL in 470 mM LiCl in trifluoroethanol). The absorbance at 390 nm versus time was monitored for 90 seconds using a spectrophotometer and the rate constants were determined from the absorbance versus time data files.
(§3) The IC50 values that were obtained for representative compounds in the following Table I refer to the concentration that inhibits 50% of the rotamase activity in a sample. […] The Cyclophilin utilized was a recombinant rat CyPA-GST fusion protein: CypA was amplified from rat brain cDNA using standard PCR methods, primed with the following sequences: 5′ CCCCCCGGGAGTCAACCCCACCGTGTTCTTCGA 3′ and 5′ GGAGATCTAGAGTTGTCCACAGTCGGAGATGGT 3′. The resulting fragment (573 base pairs) was cloned into pCRII and amplified. The CyP sequence was cut out with Smal and EcoRl and cloned into the Smal/EcoRl sites in pGEX2TK (Pharmacia). This plasmid was transformed into BL21 E. coli cells for expression of the GST-CyPA fusion protein.

Experiment [2] concerns the target T1, human recombinant CyPA. Briefly: Semiautomated microtiter plate assay of rotamase activity inhibition. Format: biochemical. The note with it: 30 minute preincubation at 4° C., read-out: IC50 (rotamase inhibition, modified plate reader assay). Here is the method: Semiautomated Assay of Rotamase Activity Inhibition: Rotamase inhibition was determined using a semiautomated microtiter plate assay modification of the above described assay [see Küillertz et al., Clin. Chem. 44, 502-508 (1998)]. All dilutions of CyPA, peptide substrate, and chymotrypsin were made in 35 mM ice-cold HEPES buffer. Fifty μL of CyPA solution were added to 50 μL of peptide substrate solution (Phe-Pro-Phe p-nitroanilide, 0.16 mg/ml) in a glass microtiter well plate (the concentration of human recombinant CyP being adjusted so that the reaction rate is increased by a factor of 3 as compared to an uncatalyzed control reaction wherein the peptide substrate is degraded by chymotrypsin alone, in the absence of CyPA and test compound). Using a Beckman Multimek™ 96 automated 96-channel pipettor, 5 μL of test compound solution, or a DMSO blank, were added to each well for a 30 minute preincubation at 4° C. One hundred μL of chymotrypsin solution (1 mg/mL) were added to each well and the absorbance at 390 nm versus time was monitored for 9-10 minutes using a BioRad Ultramark plate reader maintained at 4° C. and the rate constants were determined from the absorbance versus time data files. The cyclophilin utilized was a human recombinant CyPA [Yoo et al., J. Mol. Biol., 269 (1997) 780-95].
IC50 values which were obtained for representative compounds using this modified plate reader assay of rotamase inhibition are given in the following Table II: […]

Experiment [3] deals with T2, recombinant rat CyPA-GST fusion protein (Rattus norvegicus, UniProt P10111).
T2 construct: made in house; host or cells: E. coli BL21
T2 sequence (P10111 2-164): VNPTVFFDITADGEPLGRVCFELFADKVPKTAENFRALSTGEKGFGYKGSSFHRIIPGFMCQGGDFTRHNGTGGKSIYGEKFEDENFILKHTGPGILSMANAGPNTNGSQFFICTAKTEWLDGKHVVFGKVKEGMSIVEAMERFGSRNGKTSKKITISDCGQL
Briefly: Rotamase (prolyl peptidyl cis-trans isomerase) inhibition, chymotrypsin-coupled cuvette assay. Format: biochemical.
Source text: as §1, §2, §3

Experiment [4] relates to striatal tyrosine hydroxylase-immunoreactive fibres. Briefly: MPTP-lesioned mouse model of Parkinson's disease, striatal TH fiber density. The note with it: 10 mg/kg s.c. in Intralipid once daily days 1-5, one hour prior to MPTP; analysis day seven. Format: in vivo. The text has this:
MPTP (N-methyl-4-phenyl-1,2,3,6-tetrahydropyridine) is a systemically available neurotoxin specific to nigrostriatal dopaminergic neurons, i.e. to the cells that degenerate in human Parkinson's disease. Administration of MPTP to mice leads to a selective partial destruction of the mesotelencephalic dopaminergic projection, and to a loss of dopamine and dopaminergic fibres in the corpus striatum, which is the main forebrain target of midbrain dopaminergic neurons.
Young adult male CD1 albino mice (Harlan—Sprague Dawley; 22-25 g) were dosed i.p. with the dopamine cell-specific neurotoxin N-methyl-4-phenyl-1,2,3,6-tetrahydropyridine (MPTP hydrochloride, calculated as 34 mg/kg free base), dissolved in saline at a concentration of 3.4 mg/ml free base once daily on days one to five. […]
Blinded analysis of TH fiber density in the central striatum was performed at 630× magnification. […] The percentage of sample field covered by TH positive processes and terminals was calculated using an image analysis program (“Simple,” Compix Inc., Pittsburgh, Pa.). The mean striatal innervation density was calculated for each group. The magnitude of striatal deafferentation due to the MPTP lesion was assessed by dividing the observed striatal innervation values obtained in MPTP/vehicle treated cases by the mean striatal innervation density in the Vehicle/Vehicle group and expressed as % loss. […]

Setting [5] is: human recombinant CyPA, values with asterisk, read-out: IC50 (rotamase activity).

On to `O=S(=O)(Oc1cccc(NC(=S)Nc2cc(Cl)cc(Cl)c2)c1)c1c(F)c(F)c(F)c(F)c1F` [Compound 22, 3-({[(3,5-dichlorophenyl)amino]thioxomethyl}amino)phenyl 2,3,4,5,6-pentafluorobenzenesulfonate], for which, at human recombinant CyPA [1] (setting [5]), the IC50 (as a rule, the concentration at which inhibition is half-maximal) was found to be 0.733 µM. Regarding `O=C(CCCCc1ccccc1)Nc1cccc(C(=O)NNC(=S)NC23CC4CC(CC(C4)C2)C3)c1` [Compound 41, 1-[(6-Phenyl-1-aza-2-oxo)hexyl]-3-{[(adamant-1-yl)-1-oxo-2,3,5-triaza-4-thio]pentyl}-benzene], the IC50 on human recombinant CyPA [2] was found to be 5.19 µM. With `O=C(NNS(=O)(=O)c1ccc(Cl)c(Cl)c1)c1cccc(NC(=O)c2cccc(OCc3ccccc3)c2)c1` [Compound 31, 1-{3-[(3-Benzyloxy)phenylcarboxamido]benzoyl}-2-(3,4-dichlorobenzenesulfonyl)hydrazine], the values for the IC50 at human recombinant CyPA [2] and at human recombinant CyPA [1] (setting [5]) were 2.71 µM and 0.974 µM, respectively. Take `O=C(NNC(=O)c1cccc(NC(=O)c2cccc(OCc3ccccc3)c2)c1)c1cc(Cl)cc(Cl)c1` [Compound 30, 1-{3-[(3-Benzyloxy)phenylcarboxamido]benzoyl}-2-(3,5-dichlorobenzoyl)hydrazine]: the IC50 on human recombinant CyPA [2] stood at 3.76 µM; at human recombinant CyPA [1] (setting [5]), 0.464 µM.

In the case of `O=C(CCCCc1ccccc1)Nc1cccc(S(=O)(=O)NC(=S)Nc2ccc(Cl)c(Cl)c2)c1` [Compound 34A], at human recombinant CyPA [2], the concentration for half-maximal inhibition (IC50) came out at 4.64 µM. Same read-out and setting: then “L-N-[3-(6-Phenylhexanoylamino)benzoyl]proline 3,4-dichlorobenzamide [Compound 36]”, with 9.05 µM.

Take `O=C(CCCCc1ccccc1)Nc1cccc(-c2nnc(Nc3ccc(Cl)c(Cl)c3)s2)c1` [Compound 40A, 5-Phenyl-pentanoic acid {3-[5-(3,4-dichloro-phenylamino)-[1,3,4]thiadiazol-2-yl]-phenyl}-amide]: the IC50 at human recombinant CyPA [2] is 2.8 µM. Same read-out and setting: with `O=C(CCCCc1ccccc1)Nc1cccc(S(=O)(=O)NC(=O)Nc2ccc(Cl)c(Cl)c2)c1` [Compound 34B] the figure was 19.1 µM. Same read-out and setting: with `O=S(=O)(c1cc(Cl)cc(Cl)c1)N(c1cccc(N(S(=O)(=O)c2ccc3ccccc3c2)S(=O)(=O)c2ccc3ccccc3c2)c1)S(=O)(=O)c1cc(Cl)cc(Cl)c1` [Compound 9, (3-{Bis[(3,5-dichlorophenyl)sulfonyl]amino}phenyl)bis(2-naphthylsulfonyl)amine] the figure was 0.309 µM. Consider `O=C(Nc1cccc(N(S(=O)(=O)c2cc(Cl)cc(Cl)c2)S(=O)(=O)c2cc(Cl)cc(Cl)c2)c1)c1cc(Cl)cc(Cl)c1` [Compound 8a], for which, in experiment [3], the IC50 came to 0.364 µM. Besides, the “protection of striatal tyrosine hydroxylase-immunoreactive fibres” value in experiment [4] is reported as 37,2%. Consider `O=C(CCCCc1ccccc1)Nc1cccc(C(=O)NNC(=S)Nc2ccc(Cl)c(Cl)c2)c1` [Compound 33, 1-{3-[(5-Phenyl)valeroylamino]benzoyl}-4-(3,4-dichlorophenyl)thiosemicarbazide], for which the IC50 came out at 0.713 µM on human recombinant CyPA [2] and 0.085 µM at human recombinant CyPA [1] (setting [5]). `O=C(Nc1cccc(N(S(=O)(=O)c2ccc3ccccc3c2)S(=O)(=O)c2ccc3ccccc3c2)c1)c1cc(Cl)cc(Cl)c1` [Compound 8]: the figures for the IC50 (in experiment [3]; on human recombinant CyPA [1]) were 0.701 µM and 0.804 µM, respectively.

As to `O=C(CCCCc1ccccc1)Nc1cccc(NC(=O)CC(=O)Nc2ccc(Cl)c(Cl)c2)c1` [Compound 42, 1-[(6-Phenyl-1-aza-2-oxo)hexyl]-3-{[5-(3,4-dichlorophenyl)-1,5-diaza-2,4-oxo]pentyl}-benzene], the IC50 at human recombinant CyPA [2] amounted to 6.09 µM. `S=C(Nc1cc(Cl)cc(Cl)c1)Nc1cccc(C=NN(c2ccccc2)c2ccccc2)c1` [Compound 21, ({3-[2-aza-2-(diphenylamino)vinyl]phenyl}amino)[(3,5-dichlorophenyl)amino]methane-1-thione]: at human recombinant CyPA [1] (setting [5]), the IC50 stood at 0.512 µM. `S=C(Nc1ccc(I)cc1)NC1CCCCC1NC(=S)Nc1ccc(I)cc1` (centres unmarked) [Compound 13, [(4-iodophenyl)amino]{[2-({[(4-iodophenyl)amino]thioxomethyl}amino)cyclohexyl]amino}methane-1-thione]: the IC50 in experiment [3] (recombinant rat CyPA-GST fusion protein, values without asterisk, read-out: IC50 (rotamase activity)) is 0.68 µM; at human recombinant CyPA [2], 2.06 µM.

On to `O=C(CCCCCc1cccc(C(F)(F)F)c1)Nc1cccc(S(=O)(=O)NC(=S)Nc2ccc(Cl)c(Cl)c2)c1` [Compound 45], for which the IC50 on human recombinant CyPA [2] was 0.13 µM. For `O=C(CCCCc1ccccc1)Nc1cccc(S(=O)(=O)NNC(=S)Nc2ccc(Cl)c(Cl)c2)c1` [Compound 35], the IC50 at human recombinant CyPA [2] worked out at 0.372 µM.
